Measured values published in patent publication US20260041640A1 (INCYCLIX BIO, LLC, priority 2023, published 2026).
Read-outs that look alike come from different tables or passages of the source.

Experiment: First-in-human clinical study: plasma and whole blood PK of INX-315 (oral QD, ASD tablet)
Format: in vivo
Settings: human, plasma, plasma
Text: All INX-315 tablets were taken at approximately the same time(s) each day.
Samples will also be collected pre-dose on Cycle 1 Days 2, 8, 16, and Day 22, and pre-dose on Day 1 of each subsequent cycle.
Standard non-compartmental PK parameters were estimated.
Geometric mean and geometric CV % will be included in the summary statistics.
PK parameters will be summarized descriptively by dosing cohort. AUC and Cmax values will also be presented in scatter plots. Dose proportionality will be assessed for AUC and Cmax using a power model. The 90% CI of the slope for each PK parameter will be estimated from the model and presented in a summary table.
Cohort 1 enrollment of 6 subjects dosed at 100 mg oral QD was completed in October of 2023.
Patients were upgraded to the 200 mg QD dose level and PK/PD plasma parameters were measured (FIG. 18A).
Patients were administered the 200 mg QD and 300 mg QD dose levels and PK/PD plasma parameters were measured.

Question: For `NS(=O)(=O)c1ccc(Nc2ncc3cc4n(c3n2)C2(CCCCC2)C(=O)NN4)cc1` [INX-315], which concentration at 15 day (oral, 100 mg, 100 mg QD, Day 15 observed, mean of first two patients, read-out: Cmin^free) is on record?
Answer: The concentration at 15 day was 9.2 ng/mL.

Question: And the concentration at 12 h (oral, 100 mg, 100 mg QD, first dose level (Table 5), read-out: C12 hr)?
Answer: Its concentration at 12 h is 252 ng/mL.

Question: What about the concentration at 24 h (oral, 100 mg, 100 mg QD, first dose level (Table 5), read-out: C24 hr) of the same compound?
Answer: Its concentration at 24 h is 177 ng/mL.

Question: And the Cmax (oral, 100 mg, 100 mg QD, first dose level (Table 5), read-out: Cmax)?
Answer: The Cmax was 388 ng/mL.

Question: And the AUC (oral, 100 mg, 100 mg QD, removing esophageal cancer patient with low exposure, read-out: Total Area (adjusted AUC))?
Answer: The AUC was 2740 ng·h/mL.

Question: And the concentration at 0.5 h (oral, 200 mg, 200 mg QD (n = 2), 0.5 hr)?
Answer: The concentration at 0.5 h was 69.6 ng/mL.

Question: What about the concentration at 1 h (oral, 200 mg, 200 mg QD (n = 2), 1.0 hr) of the same compound?
Answer: Its concentration at 1 h is 109 ng/mL.

Question: What about the concentration at 2 h (oral, 200 mg, 200 mg QD (n = 2), 2.0 hr) of the same compound?
Answer: Its concentration at 2 h is 246 ng/mL.

Question: And the concentration at 6 h (oral, 200 mg, 200 mg QD (n = 2), 6.0 hr)?
Answer: Its concentration at 6 h is 343 ng/mL.

Question: And the concentration at 8 h (oral, 200 mg, 200 mg QD (n = 2), 8.0 hr)?
Answer: Its concentration at 8 h is 374 ng/mL.

Question: And the concentration at 24 h (oral, 200 mg, 200 mg QD (n = 2), […], read-out: Mean plasma concentration)?
Answer: Its concentration at 24 h is 141 ng/mL.

Question: What about the AUC (oral, 200 mg, 200 mg QD (n = 2), read-out: Total Area (AUC)) of the same compound?
Answer: The AUC was 6260 ng·h/mL.

Question: What about the AUC(0-t) (oral, 200 mg, 200 mg QD, Day 1, Cohort 2, read-out: AUClast, geometric mean) of the same compound?
Answer: The AUC(0-t) was 8940 ng·h/mL.

Question: What about the AUC(0-t) (oral, 200 mg, 200 mg QD, Day 1, Cohort 2, read-out: AUClast, median) of the same compound?
Answer: The AUC(0-t) was 7970 ng·h/mL.

Question: What about the Cmax (oral, 200 mg, 200 mg QD, Day 1, Cohort 2, read-out: Cmax, geometric mean) of the same compound?
Answer: The Cmax was 590 ng/mL.

Question: And the Cmax (oral, 200 mg, 200 mg QD, Day 1, Cohort 2, read-out: Cmax, median)?
Answer: The Cmax was 577 ng/mL.

Question: And the Tmax (oral, 200 mg, 200 mg QD, Day 1, Cohort 2, read-out: Tmax, median)?
Answer: The Tmax was 8 h.

Question: What about the Tmax (oral, 200 mg, 200 mg QD, Day 1, individual subjects, read-out: Tmax) of the same compound?
Answer: Its Tmax is 8 h.

Question: What about the half-life (oral, 200 mg, 200 mg QD, Day 1, individual subjects, read-out: t1/2 (converted)) of the same compound?
Answer: Its half-life is 18.1 h.

Question: And the AUC(0-t) (oral, 200 mg, 200 mg QD, Day 15, Cohort 2, read-out: AUClast, geometric mean)?
Answer: The AUC(0-t) was 12200 ng·h/mL.

Question: What about the AUC(0-t) (oral, 200 mg, 200 mg QD, Day 15, Cohort 2, read-out: AUClast, median) of the same compound?
Answer: Its AUC(0-t) is 13700 ng·h/mL.

Question: What about the Cmax (oral, 200 mg, 200 mg QD, Day 15, Cohort 2, read-out: Cmax, geometric mean) of the same compound?
Answer: The Cmax was 922 ng/mL.

Question: What about the Cmax (oral, 200 mg, 200 mg QD, Day 15, Cohort 2, read-out: Cmax, median) of the same compound?
Answer: Its Cmax is 888 ng/mL.

Question: What about the Tmax (oral, 200 mg, 200 mg QD, Day 15, Cohort 2, read-out: Tmax, median) of the same compound?
Answer: Its Tmax is 6 h.

Question: And the half-life (oral, 200 mg, 200 mg QD, Day 15, Cohort 2, read-out: t1/2, geometric mean (converted))?
Answer: Its half-life is 10.8 h.

Question: What about the half-life (oral, 200 mg, 200 mg QD, Day 15, Cohort 2, read-out: t1/2, median (converted)) of the same compound?
Answer: Its half-life is 10.5 h.

Question: And the Cmax (oral, 200 mg, 200 mg QD, Day 15, individual subjects, read-out: Cmax)?
Answer: The Cmax was 779 ng/mL.

Question: What about the half-life (oral, 200 mg, 200 mg QD, Day 15, individual subjects, read-out: t1/2 (converted)) of the same compound?
Answer: The half-life was 8.36 h.

Question: And the AUC (oral, 300 mg, Cohort 3 (300 mg QD), Day 1, individual subjects, read-out: AUC Plasma)?
Answer: Its AUC is 8200 ng·h/mL.

Question: And the AUC (oral, 300 mg, Cohort 3 (300 mg QD), Day 15, Tlast = 6 hours, read-out: AUC Plasma)?
Answer: The AUC was 4570 ng·h/mL.

Question: And the AUC (oral, 300 mg, Cohort 3 (300 mg QD), Day 15, individual subjects, read-out: AUC Plasma)?
Answer: Its AUC is 5820 ng·h/mL.

Question: And the AUC(0-t) (oral, 300 mg, 300 mg QD cohort, Day 1, geometric mean, read-out: AUClast, Geometric Mean)?
Answer: Its AUC(0-t) is 9550 ng·h/mL.

Question: And the Cmax (oral, 300 mg, 300 mg QD cohort, Day 1, geometric mean, read-out: Cmax, Geometric Mean)?
Answer: Its Cmax is 628 ng/mL.

Question: What about the AUC(0-t) (oral, 300 mg, 300 mg QD cohort, Day 1, individual subjects, read-out: AUClast) of the same compound?
Answer: Its AUC(0-t) is 10200 ng·h/mL.

Question: And the Cmax (oral, 300 mg, 300 mg QD cohort, Day 1, individual subjects, read-out: Cmax)?
Answer: The Cmax was 727 ng/mL.

Question: What about the Tmax (oral, 300 mg, 300 mg QD cohort, Day 1, individual subjects, read-out: Tmax) of the same compound?
Answer: The Tmax was 8 h.

Question: And the half-life (oral, 300 mg, 300 mg QD cohort, Day 1, individual subjects, read-out: t1/2 (converted))?
Answer: The half-life was 17.3 h.

Question: What about the AUC(0-t) (oral, 300 mg, 300 mg QD cohort, Day 1, median, read-out: AUClast, Median) of the same compound?
Answer: The AUC(0-t) was 10200 ng·h/mL.

Question: And the Cmax (oral, 300 mg, 300 mg QD cohort, Day 1, median, read-out: Cmax, Median)?
Answer: Its Cmax is 615 ng/mL.

Question: And the Tmax (oral, 300 mg, 300 mg QD cohort, Day 1, median, read-out: Tmax, Median)?
Answer: Its Tmax is 8 h.

Question: And the AUC(0-t) (oral, 300 mg, 300 mg QD cohort, Day 15, individual subjects, read-out: AUClast)?
Answer: The AUC(0-t) was 5590 ng·h/mL.

Question: What about the Cmax (oral, 300 mg, 300 mg QD cohort, Day 15, individual subjects, read-out: Cmax) of the same compound?
Answer: Its Cmax is 568 ng/mL.

Question: And the Tmax (oral, 300 mg, 300 mg QD cohort, Day 15, individual subjects, read-out: Tmax)?
Answer: The Tmax was 1 h.

Question: What about the half-life (oral, 300 mg, 300 mg QD cohort, Day 15, individual subjects, read-out: t1/2 (converted)) of the same compound?
Answer: Its half-life is 9.23 h.

Question: And the AUC(0-t) (po, 100 mg, 100 mg QD cohort, Day 1, geometric mean, read-out: AUClast, Geometric Mean)?
Answer: Its AUC(0-t) is 2020 ng·h/mL.

Question: What about the Cmax (po, 100 mg, 100 mg QD cohort, Day 1, geometric mean, read-out: Cmax, Geometric Mean) of the same compound?
Answer: The Cmax was 148 ng/mL.

Question: What about the half-life (po, 100 mg, 100 mg QD cohort, Day 1, geometric mean, read-out: t1/2, Geometric Mean (converted)) of the same compound?
Answer: The half-life was 13.1 h.

Question: What about the half-life (po, 100 mg, 100 mg QD cohort, Day 1, individual subjects, read-out: t1/2 (converted)) of the same compound?
Answer: The half-life was 11.5 h.

Question: And the AUC(0-t) (po, 100 mg, 100 mg QD cohort, Day 1, median, read-out: AUClast, Median)?
Answer: Its AUC(0-t) is 2280 ng·h/mL.

Question: What about the Cmax (po, 100 mg, 100 mg QD cohort, Day 1, median, read-out: Cmax, Median) of the same compound?
Answer: The Cmax was 187 ng/mL.
